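GI50 = concentration required for 50% inhibition of growth. TGI: concentration producing complete growth inhibition.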
Key:
Test in all cases: NCI-60 cell line screen, 384-well format
NCI/ADR-RES ovarian = tested on: NCI/ADR-RES ovarian
PC-3 prostate = tested on: PC-3 prostate
MALME-3M melanoma = tested on: MALME-3M melanoma
HOP-62 NSCLC = tested on: HOP-62 NSCLC
A498 renal = tested on: A498 renal
CAKI-1 renal = tested on: CAKI-1 renal
OVCAR-3 ovarian = tested on: OVCAR-3 ovarian
TK-10 renal = tested on: TK-10 renal
NCI-H226 lung = tested on: NCI-H226 lung
DU-145 prostate = tested on: DU-145 prostate
UACC-257 melanoma = tested on: UACC-257 melanoma
MDA-MB-435 melanoma = tested on: MDA-MB-435 melanoma
SN12C renal = tested on: SN12C renal
HOP-92 NSCLC = tested on: HOP-92 NSCLC
SK-MEL-28 melanoma = tested on: SK-MEL-28 melanoma
COLO 205 colon = tested on: COLO 205 colon
HCT-15 colon = tested on: HCT-15 colon
SW-620 colon = tested on: SW-620 colon
HS 578T breast = tested on: HS 578T breast
EKVX NSCLC = tested on: EKVX NSCLC
BT-549 breast = tested on: BT-549 breast
SR leukemia = tested on: SR leukemia
UACC-62 melanoma = tested on: UACC-62 melanoma
SF-295 CNS = tested on: SF-295 CNS
NCI-H460 NSCLC = tested on: NCI-H460 NSCLC
MCF7 breast = tested on: MCF7 breast
T-47D breast = tested on: T-47D breast
IGROV1 ovarian = tested on: IGROV1 ovarian
ACHN renal = tested on: ACHN renal
CCRF-CEM leukemia = tested on: CCRF-CEM leukemia
SK-MEL-2 melanoma = tested on: SK-MEL-2 melanoma
SK-OV-3 ovarian = tested on: SK-OV-3 ovarian
SF-268 CNS = tested on: SF-268 CNS
NCI-H522 lung = tested on: NCI-H522 lung
RXF 393 renal = tested on: RXF 393 renal
SNB-75 CNS = tested on: SNB-75 CNS
786-0 renal = tested on: 786-0 renal
SNB-19 CNS = tested on: SNB-19 CNS
SK-MEL-5 melanoma = tested on: SK-MEL-5 melanoma
OVCAR-8 ovarian = tested on: OVCAR-8 ovarian
M14 melanoma = tested on: M14 melanoma
OVCAR-4 ovarian = tested on: OVCAR-4 ovarian
MDA-MB-231 breast = tested on: MDA-MB-231 breast
MOLT-4 leukemia = tested on: MOLT-4 leukemia
SF-539 CNS = tested on: SF-539 CNS
HCC-2998 colon = tested on: HCC-2998 colon
A549 NSCLC = tested on: A549 NSCLC
OVCAR-5 ovarian = tested on: OVCAR-5 ovarian
KM12 colon = tested on: KM12 colon
RPMI-8226 leukemia = tested on: RPMI-8226 leukemia
U251 glioblastoma = tested on: U251 glioblastoma
HL-60(TB) leukemia = tested on: HL-60(TB) leukemia
NCI-H23 lung = tested on: NCI-H23 lung
HT29 colon = tested on: HT29 colon
MDA-MB-468 breast = tested on: MDA-MB-468 breast
NCI-H322M lung = tested on: NCI-H322M lung

Structure (SMILES): CC(C)(C)c1ccc(Oc2ccc(N)cn2)cc1
- GI50 (NCI/ADR-RES ovarian): 36.4 µM
- TGI (NCI/ADR-RES ovarian): > 100 µM
- GI50 (PC-3 prostate): 43.5 µM
- TGI (PC-3 prostate): > 100 µM
- GI50 (MALME-3M melanoma): 26.9 µM
- TGI (MALME-3M melanoma): 72.9 µM
- GI50 (HOP-62 NSCLC): 33 µM
- TGI (HOP-62 NSCLC): > 100 µM
- GI50 (A498 renal): 46.5 µM
- TGI (A498 renal): > 100 µM
- GI50 (CAKI-1 renal): 24.1 µM
- TGI (CAKI-1 renal): > 100 µM
- GI50 (OVCAR-3 ovarian): 24.9 µM
- TGI (OVCAR-3 ovarian): > 100 µM
- GI50 (TK-10 renal): 93 µM
- TGI (TK-10 renal): > 100 µM
- GI50 (NCI-H226 lung): 10.8 µM
- TGI (NCI-H226 lung): 52.3 µM
- GI50 (DU-145 prostate): 64.3 µM
- TGI (DU-145 prostate): > 100 µM
- GI50 (UACC-257 melanoma): 36 µM
- TGI (UACC-257 melanoma): > 100 µM
- GI50 (MDA-MB-435 melanoma): 92.2 µM
- TGI (MDA-MB-435 melanoma): > 100 µM
- GI50 (SN12C renal): 57.7 µM
- TGI (SN12C renal): > 100 µM
- GI50 (HOP-92 NSCLC): 34.8 µM
- TGI (HOP-92 NSCLC): > 100 µM
- GI50 (SK-MEL-28 melanoma): > 100 µM
- TGI (SK-MEL-28 melanoma): > 100 µM
- GI50 (COLO 205 colon): 38.6 µM
- TGI (COLO 205 colon): 86.6 µM
- GI50 (HCT-15 colon): 29.4 µM
- TGI (HCT-15 colon): > 100 µM
- GI50 (SW-620 colon): 85.7 µM
- TGI (SW-620 colon): > 100 µM
- GI50 (HS 578T breast): 29.5 µM
- TGI (HS 578T breast): > 100 µM
- GI50 (EKVX NSCLC): 44.2 µM
- TGI (EKVX NSCLC): > 100 µM
- GI50 (BT-549 breast): 12.6 µM
- TGI (BT-549 breast): 65 µM
- GI50 (SR leukemia): 14.3 µM
- TGI (SR leukemia): 32.8 µM
- GI50 (UACC-62 melanoma): > 100 µM
- TGI (UACC-62 melanoma): > 100 µM
- GI50 (SF-295 CNS): > 100 µM
- TGI (SF-295 CNS): > 100 µM
- GI50 (NCI-H460 NSCLC): 32.7 µM
- TGI (NCI-H460 NSCLC): > 100 µM
- GI50 (MCF7 breast): 74.2 µM
- TGI (MCF7 breast): > 100 µM
- GI50 (T-47D breast): 31.2 µM
- TGI (T-47D breast): > 100 µM
- GI50 (IGROV1 ovarian): 97.3 µM
- TGI (IGROV1 ovarian): > 100 µM
- GI50 (ACHN renal): > 100 µM
- TGI (ACHN renal): > 100 µM
- GI50 (CCRF-CEM leukemia): 0.302 µM
- TGI (CCRF-CEM leukemia): 1.24 µM
- GI50 (SK-MEL-2 melanoma): > 100 µM
- TGI (SK-MEL-2 melanoma): > 100 µM
- GI50 (SK-OV-3 ovarian): > 100 µM
- TGI (SK-OV-3 ovarian): > 100 µM
- GI50 (SF-268 CNS): 26 µM
- TGI (SF-268 CNS): > 100 µM
- GI50 (NCI-H522 lung): 14.7 µM
- TGI (NCI-H522 lung): 39.9 µM
- GI50 (RXF 393 renal): 21.8 µM
- TGI (RXF 393 renal): 66.2 µM
- GI50 (SNB-75 CNS): 22.1 µM
- TGI (SNB-75 CNS): > 100 µM
- GI50 (786-0 renal): 24.7 µM
- TGI (786-0 renal): > 100 µM
- GI50 (SNB-19 CNS): > 100 µM
- TGI (SNB-19 CNS): > 100 µM
- GI50 (SK-MEL-5 melanoma): 22.3 µM
- TGI (SK-MEL-5 melanoma): 51.8 µM
- GI50 (OVCAR-8 ovarian): 52.1 µM
- TGI (OVCAR-8 ovarian): > 100 µM
- GI50 (M14 melanoma): > 100 µM
- TGI (M14 melanoma): > 100 µM
- GI50 (OVCAR-4 ovarian): 28.1 µM
- TGI (OVCAR-4 ovarian): > 100 µM
- GI50 (MDA-MB-231 breast): 28.4 µM
- TGI (MDA-MB-231 breast): > 100 µM
- GI50 (MOLT-4 leukemia): 4.83 µM
- TGI (MOLT-4 leukemia): 19.3 µM
- GI50 (SF-539 CNS): 43.4 µM
- TGI (SF-539 CNS): > 100 µM
- GI50 (HCC-2998 colon): 17 µM
- TGI (HCC-2998 colon): 48.6 µM
- GI50 (A549 NSCLC): 20.4 µM
- TGI (A549 NSCLC): > 100 µM
- GI50 (OVCAR-5 ovarian): > 100 µM
- TGI (OVCAR-5 ovarian): > 100 µM
- GI50 (KM12 colon): 44.3 µM
- TGI (KM12 colon): > 100 µM
- GI50 (RPMI-8226 leukemia): 0.231 µM
- TGI (RPMI-8226 leukemia): 0.563 µM
- GI50 (U251 glioblastoma): 35.8 µM
- TGI (U251 glioblastoma): > 100 µM
- GI50 (HL-60(TB) leukemia): 0.479 µM
- TGI (HL-60(TB) leukemia): 2.82 µM
- GI50 (NCI-H23 lung): 29.1 µM
- TGI (NCI-H23 lung): 85.8 µM
- GI50 (HT29 colon): 24.9 µM
- TGI (HT29 colon): 57.7 µM
- GI50 (MDA-MB-468 breast): 21 µM
- TGI (MDA-MB-468 breast): 57 µM
- GI50 (NCI-H322M lung): 68.2 µM
- TGI (NCI-H322M lung): > 100 µM

— PubChem BioAssay (NCI)
